Data as given in ChEMBL document CHEMBL1201862, “PubChem BioAssay data set” (2004).
Calls of active or inactive are those of the source.

What was measured:
[1] = molecular target: Glucose-6-phosphate 1-dehydrogenase (Homo sapiens, UniProt P11413); assay: human G6PD enzyme inhibitors, dose response, selectivity assay for P. falciparum G6PD inhibitor project, biochemical, fluorescence (AID 504792); format: functional
[2] = molecular target: T1, High affinity choline transporter 1 (Homo sapiens, UniProt Q9GZV3); assay: CHT inhibitors, dose response, cell-based, 5-point CRC, membrane potential dye (AID 504840); format: functional
T1 sequence (Q9GZV3 whole entry): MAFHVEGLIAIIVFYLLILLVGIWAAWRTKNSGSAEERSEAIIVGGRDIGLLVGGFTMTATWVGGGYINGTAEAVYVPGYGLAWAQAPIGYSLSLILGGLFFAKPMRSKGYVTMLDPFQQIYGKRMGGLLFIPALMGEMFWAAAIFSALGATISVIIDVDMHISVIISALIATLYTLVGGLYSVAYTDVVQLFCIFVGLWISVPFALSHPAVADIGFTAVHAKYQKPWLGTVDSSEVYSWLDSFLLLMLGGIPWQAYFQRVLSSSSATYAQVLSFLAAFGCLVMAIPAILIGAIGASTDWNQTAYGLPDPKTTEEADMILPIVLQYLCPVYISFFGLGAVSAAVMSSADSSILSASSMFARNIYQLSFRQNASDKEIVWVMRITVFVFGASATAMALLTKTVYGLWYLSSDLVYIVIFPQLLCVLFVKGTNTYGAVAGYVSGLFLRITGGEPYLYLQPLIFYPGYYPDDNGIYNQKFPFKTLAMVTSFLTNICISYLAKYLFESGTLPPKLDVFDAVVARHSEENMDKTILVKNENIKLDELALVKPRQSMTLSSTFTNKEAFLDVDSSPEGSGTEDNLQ

Chain of Glucose-6-phosphate 1-dehydrogenase (P11413 whole entry): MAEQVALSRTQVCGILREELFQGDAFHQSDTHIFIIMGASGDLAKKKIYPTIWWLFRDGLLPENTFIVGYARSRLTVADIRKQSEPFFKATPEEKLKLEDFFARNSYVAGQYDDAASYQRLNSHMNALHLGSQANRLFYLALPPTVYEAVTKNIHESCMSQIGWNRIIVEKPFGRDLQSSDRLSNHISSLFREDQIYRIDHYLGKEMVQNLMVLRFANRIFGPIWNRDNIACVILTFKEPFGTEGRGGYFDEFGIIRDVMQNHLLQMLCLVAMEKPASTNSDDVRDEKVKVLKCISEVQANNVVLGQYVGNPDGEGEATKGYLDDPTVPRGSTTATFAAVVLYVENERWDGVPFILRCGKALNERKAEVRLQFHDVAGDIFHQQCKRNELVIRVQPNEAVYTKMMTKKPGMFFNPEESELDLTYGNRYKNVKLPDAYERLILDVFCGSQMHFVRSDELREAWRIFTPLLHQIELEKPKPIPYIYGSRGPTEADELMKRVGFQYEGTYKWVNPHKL

IC50 [1]: > 80 µM (inactive)
IC50 [2]: 14.5 µM (active)
Structure (SMILES): O=C1Nc2cc(C(=O)NCCCN3CCCC3)ccc2S/C1=C\c1ccccc1
